Experimental findings from patent publication US20240115589A1, “PHARMACEUTICAL COMPOSITION FOR PREVENTING CYTOKINE STORM” (KINKI UNIVERSITY, priority 2021, published 2024) are described below.

For test [1], the system named is IL-6. Description: LPS-stimulated IL-6 production in mouse macrophages (ELISA). The class given is cell-based. The conditions noted are these: culture supernatant, then 10 μg/mL LPS 2 days, control 13.13, LPS alone 321.13 pg/mL. The method, then: The inhibitory effect of compounds on IL-6 production involved in cytokine storm was examined using mouse macrophages.
Mouse macrophages were pre-cultured with RPMI1640 medium for 1 day. After incubation, mouse macrophages were treated with 10 μM mangiferin 8a, 10 μM norathyriol, 1 μM M9, and 1 μM M14 for 1 day. Then, 10 μg/mL LPS was added to mouse macrophages and cultured for 2 days. After incubation, the culture supernatant was collected and IL-6 production was determined by enzyme-linked immunosorbent assay (ELISA). This measurement was performed using a mouse IL-6 ELISA kit (R&D).
Background: An ELISA detects its analyte on a solid surface through an enzyme-linked reagent.

Test [2] deals with TNFα. Description: LPS-stimulated TNFα production in mouse B cells (ELISA). It counts as cell-based. The settings on record: culture supernatant, then 10 μg/mL LPS 2 days, control 15.13, LPS alone 296.31 pg/mL. The method, then:
The inhibitory effect of compounds on TNFα production involved in cytokine storm was examined using mouse B cells.
Mouse B cells were pre-cultured with RPMI1640 medium for 1 day. After incubation, mouse B cells were treated with 10 μM mangiferin 8a, 10 μM norathyriol, 1 μM M9, and 1 μM M14 for 1 day. Then, 10 μg/mL LPS was added to mouse B cells and cultured for 2 days. After incubation, the culture supernatant was collected and TNFα production was determined by enzyme-linked immunosorbent assay (ELISA). This measurement was performed using a mouse TNFα ELISA kit (R&D).

Test [3] concerns IL-6. In words: LPS-stimulated IL-6 production in mouse B cells (ELISA). It counts as cell-based. The settings on record: culture supernatant, then 10 μg/mL LPS 2 days, control 9.46, LPS alone 246.13 pg/mL. The method, then: The inhibitory effect of compounds on IL-6 production involved in cytokine storm was examined using mouse B cells.
Mouse B cells were pre-cultured with RPMI1640 medium for 1 day. After incubation, mouse B cells were treated with 10 μM mangiferin 8a, 10 μM norathyriol, 1 μM M9, and 1 μM M14 for 1 day. Then, 10 μg/mL LPS was added to mouse B cells and cultured for 2 days. After incubation, the culture supernatant was collected and IL-6 production was determined by enzyme-linked immunosorbent assay (ELISA). This measurement was performed using a mouse IL-6 ELISAkit (R&D).

The subject of test [4] is TNFα mRNA. In words: LPS-stimulated TNFα mRNA expression in mouse B cells (real time PCR). It counts as cell-based. The conditions noted are these: then 10 μg/mL LPS 4 h, vs LPS-treated group. The method, then:
The inhibitory effect of compounds on TNFα mRNA expression involved in cytokine storm was examined using mouse B cells.
(§1) Mouse B cells were pre-cultured with RPMI1640 medium for 1 day. After incubation, mouse B cells were treated with 10 μM mangiferin 8a, 10 μM norathyriol, 1 μM M9, and 1 μM M14 for 1 day. Then, 10 μg/mL LPS was added to mouse B cells and cultured for 4 h. After incubation, cells were collected, RNA was extracted, and TNFα mRNA expression was measured by real time PCR.
(§2) For controls, only 0.5% DMSO (diluted in PBS) used to dissolve the compounds was added. 10 μg/mL LPS administered is called the LPS-treated group, LPS and mangiferin 8a administered in combination is called the mangiferin 8a-treated group, LPS and norathyriol administered in combination is called the norathyriol group, LPS and M9 administered in combination is called the M9-treated group, LPS and M14 administered in combination is called the M14-treated group, respectively.

The test system of test [5] is TNFα mRNA. Description: LPS-stimulated TNFα mRNA expression in mouse macrophages (real time PCR). The class given is cell-based. The conditions noted are these: then 10 μg/mL LPS 4 h, vs LPS-treated group. The method, then: The inhibitory effect of compounds on TNFα mRNA expression involved in cytokine storm was examined using mouse macrophages.
(§3) Mouse macrophages were pre-cultured with RPMI1640 medium for 1 day. After incubation, mouse macrophages were treated with 10 μM mangiferin 8a, 10 μM norathyriol, 1 μM M9, and 1 μM M14 for 1 day. Then, 10 μg/mL LPS was added to mouse macrophages and cultured for 4 h. After incubation, cells were collected, RNA was extracted, and TNFα mRNA expression was measured by real time PCR.
as §2
For orientation: Real-time PCR tracks product formation cycle by cycle.

Test [6] concerns IL-6 mRNA. Description: LPS-stimulated IL-6 mRNA expression in mouse macrophages (real time PCR). The class given is cell-based. The settings on record: then 10 μg/mL LPS 4 h, vs LPS-treated group. The method, then: as §3
The inhibitory effect of compounds on IL-6 mRNA expression involved in cytokine storm was examined using mouse macrophages.
The experimental procedure is the same as in Example 3. […] For controls, only 0.5% DMSO (diluted in PBS) used to dissolve the compounds was added. 10 μg/mL LPS administered is called the LPS-treated group, LPS and mangiferin 8a administered in combination is called the mangiferin 8a-treated group, LPS and norathyriol administered in combination is called the norathyriol group, LPS and M9 administered in combination is called the M9-treated group, LPS and M14 administered in combination is called the M14-treated group, respectively.

Test [7] relates to IL-6 mRNA. Description: LPS-stimulated IL-6 mRNA expression in mouse B cells (real time PCR). It counts as cell-based. The conditions noted are these: then 10 μg/mL LPS 4 h, vs LPS-treated group. The method, then:
as §1
The inhibitory effect of compounds on IL-6 mRNA expression involved in cytokine storm was examined using mouse B cells. The experimental procedure is the same as in Example 1.
as §2

Test [8] has as its system IL-6. In words: Serum IL-6 production in mice treated with compound and LPS (ELISA). The class given is in vivo. The settings on record: C57BL/6J mice, 25 mg/kg LPS i.p., serum 2 hours after LPS, control 2.75, LPS alone 20.1 ng/mL. The method, then:
Six-week-old male C57BL/6J (Shimizu experimental material) was orally administered 100 mg/kg norathyriol, 50 mg/kg M9, and 50 mg/kg M14. Five minutes later, 25 mg/kg LPS was administered intraperitoneally. Serum was collected from mice 2 hours after LPS administration, and the amount of IL-6 production involved in the cytokine storm was measured by enzyme-linked immunosorbent assay (ELISA). This measurement was performed using a mouse IL-6 ELISA kit (R&D).
(§4) Those not receiving the compound and LPS are referred to as the control group, those receiving 25 mg/kg LPS are referred to as the LPS group, those receiving 100 mg/kg norathyriol and 25 mg/kg LPS are referred to as the norathyriol-treated group, those receiving 50 mg/kg M9 and 25 mg/kg LPS are referred to as the M9-treated group, and those receiving 50 mg/kg M14 and 25 mg/kg LPS are referred to as the M14-treated group.

In test [9] the test system is TNFα. Description: Serum TNFα production in mice treated with compound and LPS (ELISA). It counts as in vivo. The conditions noted are these: C57BL/6J mice, 25 mg/kg LPS i.p., serum 2 hours after LPS, control 1.55, LPS alone 10.28 ng/mL. The method, then:
Six-week-old male C57BL/6J (Shimizu experimental material) was orally administered 100 mg/kg norathyriol, 50 mg/kg M9, and 50 mg/kg M14. Five minutes later, 25 mg/kg LPS was administered intraperitoneally. Serum was collected from mice 2 hours after LPS administration, and the amount of TNFα production involved in the cytokine storm was measured by enzyme-linked immunosorbent assay (ELISA). This measurement was performed using a mouse TNFα ELISA kit (R&D).
as §4

For the compound `CCC(=O)OC[C@H]1O[C@@H](c2c(O)cc3oc4cc(O)c(O)cc4c(=O)c3c2O)[C@H](OC(=O)CC)[C@@H](OC(=O)CC)[C@@H]1OC(=O)CC` [M9, 2′,3′,4′,6′-tetra-O-propionylmangiferin], the IL-6 production worked out at 49.46 pg/mL in test [1] (1 μM compound 1 day) and 45.12 pg/mL in test [3] (1 μM compound 1 day). The TNFα production in test [2] (1 μM compound 1 day) stood at 55.13 pg/mL. Besides, the “LPS-induced TNFα mRNA expression (ratio to GAPDH mRNA)” value in test [4] (1 μM compound 1 day) and in [5] (1 μM compound 1 day) was “decrease in LPS-induced TNFα mRNA expression” throughout. Besides, the “LPS-induced IL-6 mRNA expression (ratio to GAPDH mRNA)” value in test [6] (1 μM compound 1 day) and in test [7] (1 μM compound 1 day) was “decrease in LPS-induced IL-6 mRNA expression” each time. In test [8] (50 mg/kg oral), the “IL-6 production in serum” value is on record as 15.15 ng/mL. For the same compound, the “TNFα production in serum” value in test [9] (50 mg/kg oral) is on record as 5.68 ng/mL.
`CCCC(=O)OC[C@H]1O[C@@H](c2c(O)cc3oc4cc(O)c(O)cc4c(=O)c3c2O)[C@H](OC(=O)CCC)[C@@H](OC(=O)CCC)[C@@H]1OC(=O)CCC` [M14, 2′,3′,4′,6′-tetra-O-butyrylmangiferin]: the IL-6 production in test [1] (1 μM compound 1 day) and in test [3] (1 μM compound 1 day) was 45.13 pg/mL each time. Further, the TNFα production in [2] (1 μM compound 1 day) is 46.13 pg/mL. The “LPS-induced TNFα mRNA expression (ratio to GAPDH mRNA)” value in test [4] (1 μM compound 1 day) and in test [5] (1 μM compound 1 day) was “decrease in LPS-induced TNFα mRNA expression” throughout. The “LPS-induced IL-6 mRNA expression (ratio to GAPDH mRNA)” value in test [6] (1 μM compound 1 day) and in [7] (1 μM compound 1 day) was “decrease in LPS-induced IL-6 mRNA expression” each time. Also, in test [8] (50 mg/kg oral), the “IL-6 production in serum” value worked out at 14.26 ng/mL. Moreover, in [9] (50 mg/kg oral), the “TNFα production in serum” value turned out to be 5.2 ng/mL.
Take `O=c1c2cc(O)c(O)cc2oc2cc(O)cc(O)c12` [norathyriol, 1,3,6,7-tetrahydroxyxanthone]: the values for the IL-6 production in [1] (10 μM compound 1 day) and in test [3] (10 μM compound 1 day) were 64.13 pg/mL and 56.13 pg/mL, respectively. In test [2] (10 μM compound 1 day), the TNFα production is given as 64.13 pg/mL. In addition, the “LPS-induced TNFα mRNA expression (ratio to GAPDH mRNA)” value in test [4] (10 μM compound 1 day) and in [5] (10 μM compound 1 day) was “decrease in LPS-induced TNFα mRNA expression” each time. The “LPS-induced IL-6 mRNA expression (ratio to GAPDH mRNA)” value in [6] (10 μM compound 1 day) and in [7] (10 μM compound 1 day) was “decrease in LPS-induced IL-6 mRNA expression” in each case. Further, in test [8] (100 mg/kg oral), the “IL-6 production in serum” value is 11.37 ng/mL. Besides, in test [9] (100 mg/kg oral), the “TNFα production in serum” value is given as 2.71 ng/mL.
